What was measured:
Format in all cases: cell-based
[1] = tested on: hedgehog pathway (pGL3-7xGli-Luciferase reporter in C3H10T1/2 cells); experiment: Transient transfection of C3H10T1/2 and Gli-Luc reporter assay with SAG stimulation; settings: Mus musculus, C3H 10T1/2, SAG 20 nM, 48 hr, read-out: Inhibition of Gli-Luc expression [IC50
Protocol: A cell-based screen for inhibitors of the hedgehog pathway was performed using a transient transfection system in C3H10T1/2 cells with pGL3-7xGli-Luciferase reporter plasmids C3H10T1/2 cells (ATCC, cat.#CCL-226) were seeded into 6-well plates at 8×10^4 cells/well in a BME medium containing 10% heat-inactivated FBS. Cells were transfected the next morning with 500 ng/well pGL3-7xGli-Luciferase reporter plasmids and 100 ng/well pRL-TK Renilla luciferase reporter plasmids (Promega)using GeneJuice transfection reagent (Novagene). After 24 h, transfected cells were collected by trypsin treatment and re-plated in 96-well plates in an RPMI medium containing 0.5% FBS with a density of 1.5×10^4 cells/well. Compounds were dissolved in DMSO with serial dilutions and were then added to the assay plate. SAG (Hh-Ag 1.3) (Santa Cruz) was added to the assay plated for a final concentration 20 nM. The assay plates were incubated at 37° C. for 48 hr.
(§1) Firefly luciferase and Renilla luciferase activity was determined using the Dual-Glo Luciferase reporter assay system (Promega) with a Victor3 plate reader (PerkinElmer Life Sciences). Firefly luciferase readings were normalized to Renilla luciferase to correct for transfection efficiency. Luminance reading for the C3H10T1/2-Gli-Luc assay was normalized based on DMSO control with SAG stimulation (100% pathway activity) and without SAG stimulation (0% pathway activity). IC50 values, defined as the inflection point of the logistic curve, were determined by nonlinear regression using the Prism 5 software (GraphPad).

Smo wild type = biological target: T1, Smo wild type (Homo sapiens, UniProt Q99835); experiment: Reporter assay of C3H10T1/2-Gli-Luc cells transfected with wild-type Smo, without SAG; settings: C3H10T1/2 cells transfected with pLPCX-SMO, no SAG, 48 hr; read-out: Inhibition of C3H10T1/2-Gli-Luc-Smo-WT [IC50
T1 construct: expressed in transfected cells; host or cells: C3H10T1/2 cells (ATCC CCL-226), transient transfection with pLPCX-SMO
Protocol: (§2) A transient transfection system with a Smo wild type or a Smo D473H mutant was also used for compound screening. For the SMO inhibition experiments, cells were transfected with an additional 500 ng/well of wild-type or D473H-mutant type SMO construct (pLPCX-SMO or pLPCX-SMO-D473H). After 24 h, transfected cells were collected by trypsin treatment and re-plated in 96-well plates in an RPMI medium containing 0.5% FBS with a density of 1.5×10^4 cells/well. Compounds were dissolved in DMSO with serial dilutions and were then added to the assay plate. The assay plates were incubated at 37° C. for 48 hr.
as §1
(§3) The reporter assay of C3H10T1/2-Gli-Luc cells transfected with a wild-type, D473H mutant Smo mutant was carried out with the same protocol but without SAG stimulation. Luminance reading for the SMO inhibition experiments assay was normalized based on DMSO control (100% of the pathway activity) and a known Smo antagonist (ALLO-2 at 10 μM, 0% of the pathway activity).

Smo D473H mutant = biological target: T2, Smo D473H mutant (Homo sapiens, UniProt Q99835, D473H); experiment: Reporter assay of C3H10T1/2-Gli-Luc cells transfected with Smo D473H mutant, without SAG; settings: C3H10T1/2 cells transfected with pLPCX-SMO-D473H, no SAG, 48 hr; read-out: Inhibition of C3H10T1/2-Gli-Luc-Smo-D473H [IC50
T2 construct: expressed in transfected cells; host or cells: C3H10T1/2 cells (ATCC CCL-226), transient transfection with pLPCX-SMO-D473H
Protocol: as §2, §1, §3

T2 sequence (Q99835 28-787 D473H): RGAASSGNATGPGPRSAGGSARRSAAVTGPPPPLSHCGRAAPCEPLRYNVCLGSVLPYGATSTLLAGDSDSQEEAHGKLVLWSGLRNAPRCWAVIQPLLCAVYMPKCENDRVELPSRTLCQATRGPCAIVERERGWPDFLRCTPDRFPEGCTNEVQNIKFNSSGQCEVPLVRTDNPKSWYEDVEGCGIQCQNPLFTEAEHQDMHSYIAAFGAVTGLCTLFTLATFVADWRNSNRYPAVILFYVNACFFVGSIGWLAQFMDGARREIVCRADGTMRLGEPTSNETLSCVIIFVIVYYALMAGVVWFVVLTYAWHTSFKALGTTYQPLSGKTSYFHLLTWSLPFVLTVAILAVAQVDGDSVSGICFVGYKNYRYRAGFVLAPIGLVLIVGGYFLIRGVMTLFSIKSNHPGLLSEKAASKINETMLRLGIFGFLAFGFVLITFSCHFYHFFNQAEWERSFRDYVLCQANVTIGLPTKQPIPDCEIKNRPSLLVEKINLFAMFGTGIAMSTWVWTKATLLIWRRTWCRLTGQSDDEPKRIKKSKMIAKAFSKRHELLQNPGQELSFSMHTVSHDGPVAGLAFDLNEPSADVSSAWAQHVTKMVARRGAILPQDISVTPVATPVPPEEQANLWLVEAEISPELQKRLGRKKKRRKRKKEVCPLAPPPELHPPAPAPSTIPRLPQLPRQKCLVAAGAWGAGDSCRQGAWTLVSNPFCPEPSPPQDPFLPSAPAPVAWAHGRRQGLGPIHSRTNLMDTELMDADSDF
T1 sequence (Q99835 28-787): as the sequence (Q99835 28-787 D473H) above, with H446D counted along it

Compound	IC50 [1] [nM]	IC50 (Smo wild type) [nM]	IC50 (Smo D473H mutant) [nM]
CSc1cnc(Nc2ccc(C(=O)Nc3cc(CN4CCOCC4)ccc3C)cc2F)nc1-c1cnn(C)c1 [Compound 45, 3-Fluoro-N-(2-methyl-5-morpholin-4-ylmethyl-phenyl)-4-[4-(1-methyl-1H-pyrazol-4-yl)-5-methylsulfanyl-pyrimidin-2-ylamino]-benzamide]	< 100	< 100	< 100
CSc1cnc(Nc2ccc(C(=O)Nc3cc(CN4CCN(C)CC4)ccc3C)cc2F)nc1-c1cnn(C)c1 [Compound 46, 3-Fluoro-N-[2-methyl-5-(4-methyl-piperazin-1-ylmethyl)-phenyl]-4-[4-(1-methyl-1H-pyrazol-4-yl)-5-methylsulfanyl-pyrimidin-2-ylamino]-benzamide]	< 100	< 100	100 to 1000
CCN(CC)Cc1ccc(C)c(NC(=O)c2ccc(Nc3ncc(SC)c(-c4ccc(F)cc4)n3)cc2)c1 [Compound 47, N-(5-Diethylaminomethyl-2-methyl-phenyl)-4-[4-(4-fluoro-phenyl)-5-methylsulfanyl-pyrimidin-2-ylamino]-benzamide]	< 100	< 100	100 to 1000
CSc1cnc(Nc2ccc(C(=O)Nc3cc(CN4CCCCC4)ccc3C)cc2)nc1-c1ccc(F)cc1 [Compound 48, 4-[4-(4-Fluoro-phenyl)-5-methylsulfanyl-pyrimidin-2-ylamino]-N-(2-methyl-5-piperidin-1-ylmethyl-phenyl)-benzamide]	< 100	< 100	100 to 1000
COc1cnc(Nc2ccc(C(=O)Nc3cc(CN4CCOCC4)ccc3C)cc2)nc1-c1ccc(C#N)cc1 [Compound 49, 4-[4-(4-Cyano-phenyl)-5-methoxy-pyrimidin-2-ylamino]-N-(2-methyl-5-morpholin-4-ylmethyl-phenyl)-benzamide]	100 to 1000	100 to 1000	> 1000
CCN(CC)Cc1ccc(C)c(NC(=O)c2ccc(Nc3ncc(OC)c(-c4ccc(C#N)cc4)n3)cc2)c1 [Compound 50, 4-[4-(4-Cyano-phenyl)-5-methoxy-pyrimidin-2-ylamino]-N-(5-diethylaminomethyl-2-methyl-phenyl)-benzamide]	< 100	< 100	100 to 1000
COc1cnc(Nc2ccc(C(=O)Nc3cc(CN4CCN(C)CC4)ccc3C)cc2)nc1-c1ccc(C#N)cc1 [Compound 51, 4-[4-(4-Cyano-phenyl)-5-methoxy-pyrimidin-2-ylamino]-N-[2-methyl-5-(4-methyl-piperazin-1-ylmethyl)-phenyl]-benzamide]	< 100	< 100	100 to 1000
COc1cnc(Nc2ccc(C(=O)Nc3cc(CN4CCN(C)CC4)ccc3C)cc2)nc1-c1ccc(OC(F)(F)F)cc1 [Compound 52, 4-[5-Methoxy-4-(4-trifluoromethoxy-phenyl)-pyrimidin-2-ylamino]-N-[2-methyl-5-(4-methyl-piperazin-1-ylmethyl)-phenyl]-benzamide]	< 100	< 100	> 1000
CCN(CC)Cc1ccc(C)c(NC(=O)c2ccc(Nc3ncc(SC)c(-c4ccc(F)cc4)n3)c(F)c2)c1 [Compound 53, N-(5-Diethylaminomethyl-2-methyl-phenyl)-3-fluoro-4-[4-(4-fluoro-phenyl)-5-methylsulfanyl-pyrimidin-2-ylamino]-benzamide]	< 100	< 100	< 100
CSc1cnc(Nc2ccc(C(=O)Nc3cc(CN(C)C)ccc3C)cc2)nc1-c1ccc(OC(F)(F)F)cc1 [Compound 54, N-(5-Dimethylaminomethyl-2-methyl-phenyl)-4-[5-methylsulfanyl-4-(4-trifluoromethoxy-phenyl)-pyrimidin-2-ylamino]-benzamide]	< 100	100 to 1000	100 to 1000

Further lines, results first:

IC50 [1] [nM]	IC50 (Smo wild type) [nM]	IC50 (Smo D473H mutant) [nM]	Compound
< 100	< 100	< 100	CSc1cnc(Nc2ccc(C(=O)Nc3cc(CN4CCOCC4)ccc3F)cc2F)nc1-c1ccc(OC(F)(F)F)cc1 [Compound 55, 3-Fluoro-N-(2-fluoro-5-morpholin-4-ylmethyl-phenyl)-4-[5-methylsulfanyl-4-(4-trifluoromethoxy-phenyl)-pyrimidin-2-ylamino]-benzamide]
< 100	< 100	100 to 1000	CCN(CC)Cc1cccc(NC(=O)c2ccc(Nc3ncc(SC)c(-c4ccc(OC(F)(F)F)cc4)n3)c(F)c2)c1 [Compound 56, N-(3-Diethylaminomethyl-phenyl)-3-fluoro-4-[5-methylsulfanyl-4-(4-trifluoromethoxy-phenyl)-pyrimidin-2-ylamino]-benzamide]
< 100	< 100	100 to 1000	CSc1cnc(Nc2ccc(C(=O)Nc3cc(CN4CCOCC4)ccc3F)cc2F)nc1-c1ccc(F)cc1 [Compound 57, 3-Fluoro-N-(2-fluoro-5-morpholin-4-ylmethyl-phenyl)-4-[4-(4-fluoro-phenyl)-5-methylsulfanyl-pyrimidin-2-ylamino]-benzamide]
< 100	< 100	100 to 1000	COc1ccc(CN2CCOCC2)cc1NC(=O)c1ccc(Nc2ncc(SC)c(-c3ccc(OC(F)(F)F)cc3)n2)c(F)c1 [Compound 58, 3-Fluoro-N-(2-methoxy-5-morpholin-4-ylmethyl-phenyl)-4-[5-methylsulfanyl-4-(4-trifluoromethoxy-phenyl)-pyrimidin-2-ylamino]-benzamide]
100 to 1000	100 to 1000	100 to 1000	COc1ccc(CN2CCOCC2)cc1NC(=O)c1ccc(Nc2ncc(SC)c(-c3ccc(F)cc3)n2)cc1 [Compound 59, 4-[4-(4-Fluoro-phenyl)-5-methylsulfanyl-pyrimidin-2-ylamino]-N-(2-methoxy-5-morpholin-4-ylmethyl-phenyl)-benzamide]
< 100	< 100	< 100	COc1cnc(Nc2ccc(C(=O)Nc3cc(CN4CCOCC4)ccc3C)cc2F)nc1-c1ccc(F)cc1 [Compound 60, 3-Fluoro-4-[4-(4-fluoro-phenyl)-5-methoxy-pyrimidin-2-ylamino]-N-(2-methyl-5-morpholin-4-ylmethyl-phenyl)-benzamide]
< 100	< 100	100 to 1000	CCN(CC)Cc1ccc(C)c(NC(=O)c2ccc(Nc3ncc(OC)c(-c4ccc(OC(F)(F)F)cc4)n3)c(F)c2)c1 [Compound 61, N-(5-Diethylaminomethyl-2-methyl-phenyl)-3-fluoro-4-[5-methoxy-4-(4-trifluoromethoxy-phenyl)-pyrimidin-2-ylamino]-benzamide]
< 100	< 100	100 to 1000	COc1cnc(Nc2ccc(C(=O)Nc3cc(CN4CCN(C)CC4)ccc3C)cc2F)nc1-c1ccc(OC(F)(F)F)cc1 [Compound 62, 3-Fluoro-4-[5-methoxy-4-(4-trifluoromethoxy-phenyl)-pyrimidin-2-ylamino]-N-[2-methyl-5-(4-methyl-piperazin-1-ylmethyl)-phenyl]-benzamide]
< 100	< 100	< 100	CSc1cnc(Nc2ccc(C(=O)Nc3cc(CN4CCOCC4)ccc3C)cn2)nc1-c1ccc(OC(F)(F)F)cc1 [Compound 63, N-(2-Methyl-5-morpholin-4-ylmethyl-phenyl)-6-[5-methylsulfanyl-4-(4-trifluoromethoxy-phenyl)-pyrimidin-2-ylamino]-nicotinamide]
< 100	< 100	< 100	CSc1cnc(Nc2ccc(C(=O)Nc3cccc(CN4CCOCC4)c3)cn2)nc1-c1ccc(OC(F)(F)F)cc1 [Compound 64, 6-[5-Methylsulfanyl-4-(4-trifluoromethoxy-phenyl)-pyrimidin-2-ylamino]-N-(3-morpholin-4-ylmethyl-phenyl)-nicotinamide]

— patent US10793542B2, “Hetroarylamine compounds for modulating the hedgehog pathway and preparing method and uses thereof” (DEVELOPMENT CENTER FOR BIOTECHNOLOGY, priority 2016, dated 2020)
